Data on 13 molecules can be found in ChEMBL document CHEMBL1201862, “PubChem BioAssay data set” (2004).

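Cells were grown in 96-well plates and exposed to each compound for 48 hours at five concentrations; endpoints were interpolated linearly between bracketing concentrations, or set to the highest concentration if not reached. At the GI50, growth is halved.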 The source made the active and inactive calls. No stated cut-off is given here; in the data, active = GI50 up to about 1.1 µM and inactive = higher.

Some test systems named below: PC-3; NCI/ADR-RES; MCF7; HOP-92; MDA-MB-231; T47D; BT-549; CCRF-CEM; SR; MDA-MB-435; SNB-75; DU-145; KM12; SW-620; Hs-578T; UACC-257; MDA-N; OVCAR-5.
What all share (assay): NCI anticancer screen, dose series, 48 h

As for `COc1ccc(NC(=O)CC(=O)N2N=C(C)C(/N=N\c3ccc(S(=O)(=O)c4ccc(/N=N/C5C(=O)N(C(=O)CC(=O)Nc6ccc(OC)cc6)N=C5C)cc4)cc3)C2=O)cc1` (stereo unspecified), the GI50 with PC-3 was > 100 µM (inactive); in the test on NCI/ADR-RES, > 100 µM (inactive); with MCF7, > 100 µM (inactive); in the test with HOP-92 it was 63.5 µM (inactive); with MDA-MB-231 it was > 100 µM (inactive); in the test on T47D, > 100 µM (inactive). Also, the GI50 with BT-549 was > 100 µM (inactive); in the test on CCRF-CEM, > 100 µM (inactive); in the test with SR it was > 100 µM (inactive); in the test on MDA-MB-435 it was > 100 µM (inactive); in the test with SNB-75 it was 24.9 µM (inactive); in the test with DU-145 it was > 100 µM (inactive). Also, the GI50 is > 100 µM (inactive) in the test with KM12; > 100 µM (inactive) in the test with SW-620; 25 µM (inactive) in the test with Hs-578T; > 100 µM (inactive) in the test on UACC-257; > 100 µM (inactive) in the test with MDA-N.
With `COc1cc([N+](=O)[O-])ccc1N1C(=O)C2c3[nH]c4ccccc4c3C3CCC(C(C)(C)C)CC3C2C1=O` (stereo unspecified), the GI50 was 38.6 µM (inactive) with PC-3; 22.3 µM (inactive) in the test with NCI/ADR-RES; > 100 µM (inactive) in the test on MCF7; 22 µM (inactive) with HOP-92; 14.7 µM (inactive) with MDA-MB-231; 32 µM (inactive) with BT-549. Further, the GI50 with CCRF-CEM was 21.8 µM (inactive); with SR, > 100 µM (inactive); in the test on MDA-MB-435 it was 17.4 µM (inactive); in the test on DU-145, > 100 µM (inactive); with KM12, > 100 µM (inactive); in the test on SW-620, > 100 µM (inactive). For the same molecule, the GI50 in the test with Hs-578T is 5.6 µM (inactive); in the test on UACC-257, 76.4 µM (inactive); in the test with MDA-N it was 40.6 µM (inactive); in the test on OVCAR-5 it was 80.5 µM (inactive).
Take `CC(c1ccccc1)N1CCN(C(C)c2ccccc2)CC1` (stereo unspecified): the GI50 in the test with PC-3 is > 100 µM (inactive); in the test on NCI/ADR-RES, > 100 µM (inactive); with HOP-92, 31.6 µM (inactive); in the test on MDA-MB-231 it was > 100 µM (inactive); in the test with T47D, > 100 µM (inactive); with BT-549 it was > 100 µM (inactive). Further, the GI50 was 35.8 µM (inactive) in the test on SR; 80.4 µM (inactive) with MDA-MB-435; > 100 µM (inactive) in the test with DU-145; > 100 µM (inactive) with KM12; > 100 µM (inactive) with SW-620; > 100 µM (inactive) with Hs-578T. In addition, the GI50 in the test with UACC-257 was 68.7 µM (inactive); in the test on MDA-N it was 45.6 µM (inactive); with OVCAR-5, > 100 µM (inactive).
Take `O=Nn1c2ccccc2c2cc([N+](=O)[O-])ccc21`: the GI50 with PC-3 is 18.4 µM (inactive); with NCI/ADR-RES, 20.2 µM (inactive); in the test on MCF7 it was 22.9 µM (inactive); with HOP-92 it was 14.3 µM (inactive); with MDA-MB-231, 18.9 µM (inactive); with T47D, 31.1 µM (inactive). The GI50 in the test on BT-549 was 17.2 µM (inactive); with CCRF-CEM it was 14.3 µM (inactive); in the test on MDA-MB-435, 17.1 µM (inactive); with SNB-75, 7.23 µM (inactive); with DU-145, 14.3 µM (inactive); in the test on KM12, 17.5 µM (inactive). For the same molecule, the GI50 in the test with SW-620 is 13.7 µM (inactive); in the test on Hs-578T, 31.7 µM (inactive); with UACC-257, 22.9 µM (inactive); with MDA-N, 17.2 µM (inactive); in the test on OVCAR-5, 16.5 µM (inactive).
For `CC1(C)N=C(c2ccccc2)SC12S[C@@H]1CCCC[C@H]1S2`, the GI50 with PC-3 is > 100 µM (inactive); in the test with NCI/ADR-RES, > 100 µM (inactive); with MCF7, 64.4 µM (inactive); with HOP-92, > 100 µM (inactive); in the test on MDA-MB-231, > 100 µM (inactive); in the test on T47D, 35.8 µM (inactive). Moreover, the GI50 in the test with BT-549, with CCRF-CEM, in the test on MDA-MB-435, in the test on SNB-75, in the test with DU-145 and in the test with KM12 was > 100 µM (inactive) each time. The GI50 was 29.4 µM (inactive) in the test with SW-620; 4.57 µM (inactive) in the test with Hs-578T; 41.5 µM (inactive) in the test on UACC-257; 20.7 µM (inactive) with MDA-N; > 100 µM (inactive) with OVCAR-5.
Consider `O=C1c2cc3c(cc2CC1Cc1ccc2c(c1)CCC2)CCC3` (stereo unspecified), for which the GI50 with PC-3 is 72.9 µM (inactive); with NCI/ADR-RES, 65.3 µM (inactive); with MCF7 it was 93.1 µM (inactive); in the test with MDA-MB-231, 26.4 µM (inactive); in the test with T47D, 10.9 µM (inactive); with BT-549 it was 81.3 µM (inactive). Moreover, the GI50 in the test with CCRF-CEM was 44.6 µM (inactive); in the test with SR, 29.9 µM (inactive); in the test with MDA-MB-435, 76 µM (inactive); in the test on SNB-75, 13.4 µM (inactive); with DU-145 it was 54 µM (inactive); in the test with KM12 it was > 100 µM (inactive). Moreover, the GI50 in the test with SW-620 is 45.5 µM (inactive); with Hs-578T, 32.4 µM (inactive); with UACC-257, 87.7 µM (inactive); with MDA-N, 51.4 µM (inactive); in the test on OVCAR-5 it was > 100 µM (inactive).
`O=C1Nc2ccccc2N/C1=C\C(=O)C(F)F`: the GI50 in the test with PC-3, in the test with NCI/ADR-RES, with MCF7, in the test with MDA-MB-231, with BT-549 and in the test with CCRF-CEM was > 100 µM (inactive) throughout. The GI50 with SR, with MDA-MB-435, in the test on DU-145, in the test on KM12, with SW-620 and in the test on Hs-578T was > 100 µM (inactive) in each case. Besides, the GI50 with UACC-257, in the test on MDA-N and with OVCAR-5 was > 100 µM (inactive) in each case.
In the case of `CN(C)CCNc1nc2c(c(=O)n(C)c(=O)n2C)n1C`, the GI50 in the test on NCI/ADR-RES, with MCF7, with HOP-92, in the test with MDA-MB-231, in the test on T47D and in the test with BT-549 was > 100 µM (inactive) each time. Besides, the GI50 in the test on CCRF-CEM, in the test with SR, with MDA-MB-435, in the test with DU-145, with KM12 and in the test with SW-620 was > 100 µM (inactive) each time. For the same molecule, the GI50 in the test on Hs-578T, with UACC-257, in the test on MDA-N and in the test with OVCAR-5 was > 100 µM (inactive) each time.
Take `CC1(C)OCC(CO)(CO)CO1`: the GI50 in the test on PC-3, in the test on NCI/ADR-RES, with MCF7, in the test on HOP-92, in the test on MDA-MB-231 and in the test on T47D was > 100 µM (inactive) throughout. For the same molecule, the GI50 in the test with CCRF-CEM, in the test on SR, with MDA-MB-435, in the test with SNB-75, in the test with DU-145 and with KM12 was > 100 µM (inactive) in each case. Moreover, the GI50 in the test on SW-620, in the test on Hs-578T, in the test on UACC-257 and in the test with MDA-N was > 100 µM (inactive) throughout.
For `CCOC(=O)Cc1cnc(NC(NC(=O)CC)(C(F)(F)F)C(F)(F)F)s1`, the GI50 in the test with MCF7, in the test on MDA-MB-231, in the test with T47D, in the test on BT-549, in the test with CCRF-CEM and in the test on SR was > 100 µM (inactive) in each case. The GI50 in the test with MDA-MB-435, in the test on SNB-75, with DU-145, with KM12, in the test with Hs-578T and with UACC-257 was > 100 µM (inactive) throughout. For the same molecule, the GI50 with MDA-N and with OVCAR-5 was > 100 µM (inactive) throughout.
Regarding `CNC(=O)OC(C)CN1c2ccccc2Sc2ccc(Cl)cc21` (stereo unspecified), the GI50 in the test on PC-3, in the test with NCI/ADR-RES, in the test on MCF7, in the test on MDA-MB-231, with T47D and in the test on CCRF-CEM was > 10 µM (inactive) each time. Also, the GI50 in the test with SR, in the test on MDA-MB-435, with SNB-75, in the test with DU-145, in the test with SW-620 and in the test with Hs-578T was > 10 µM (inactive) each time. Moreover, the GI50 with MDA-N and in the test on OVCAR-5 was > 10 µM (inactive) each time.
For `CCOC(=O)c1nc2cc(C(F)(F)F)ccc2nc1Nc1ccc(C(=O)NC(C(=O)OCC)C(=O)OCC)cc1`, the GI50 is 22.9 µM (inactive) with PC-3; 19.5 µM (inactive) in the test with MCF7; 27.4 µM (inactive) in the test on HOP-92; 17.4 µM (inactive) in the test on MDA-MB-231; 23.6 µM (inactive) in the test on BT-549; 75 µM (inactive) in the test with CCRF-CEM. Moreover, the GI50 with SR was 46.9 µM (inactive); in the test with MDA-MB-435, 33.6 µM (inactive); with DU-145, 51.6 µM (inactive); with KM12, 27.5 µM (inactive); with SW-620, 40.8 µM (inactive); with Hs-578T it was 12.4 µM (inactive). The GI50 in the test with UACC-257 was 18.7 µM (inactive); with MDA-N, > 10 µM (inactive); in the test with OVCAR-5, 45.1 µM (inactive).
As for `COc1cc(C2c3cc4c(cc3[C@@H](Nc3ccc(Oc5ccccc5)cc3)C3COC(=O)[C@H]23)OCO4)cc(OC)c1O` (stereo partly specified), the GI50 is 9.02 µM (inactive) in the test with NCI/ADR-RES; 0.4 µM (active) with MCF7; 0.431 µM (active) in the test with CCRF-CEM; 4.57 µM (inactive) in the test on KM12; 2.07 µM (inactive) in the test with SW-620; 1.22 µM (inactive) in the test with UACC-257. In the test on OVCAR-5, the GI50 was > 61 µM (inactive).
